Measurements as given in EP4653437A2 (Innovo Therapeutics Inc., priority 2023, dated 2024).

What was measured:
human 15-PGDH = molecular target: T1, human 15-PGDH (Homo sapiens, UniProt P15428); assay: Evaluation of 15-PGDH inhibitory activity (fluorescence enzyme assay, NAD+/PGE2); format: biochemical; conditions: human 15-PGDH enzyme, fluorescence Vmax
T1 construct: purchased R&D System 5660-DH
T1 sequence (P15428 1-266): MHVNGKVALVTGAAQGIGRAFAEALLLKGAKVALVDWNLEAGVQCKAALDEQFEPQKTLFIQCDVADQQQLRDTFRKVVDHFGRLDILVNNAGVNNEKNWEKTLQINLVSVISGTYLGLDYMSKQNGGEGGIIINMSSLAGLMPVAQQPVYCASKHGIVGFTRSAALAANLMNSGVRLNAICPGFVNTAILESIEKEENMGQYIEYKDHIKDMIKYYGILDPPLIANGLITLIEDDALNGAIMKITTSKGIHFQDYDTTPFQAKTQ
Procedure: 15-PGDH inhibition activity of Example compounds was measured as follows. 6.7 ng of human 15-PGDH (R&D System# 5660-DH) enzyme (10 µL) was added to a black 96 well plate, 60 µL of buffer (50 mM Tris-HCl, pH 7.5, 0.01% Tween 20) was added, and 10 µL of 200 µM β-Nicotinamide adenine dinucleotide sodium salt (Sigma, Cat# N0632-5G) was added. 10 µL of (10x) compound solution in DMSO was added and reacted for 10 minutes at room temperature.

A549 cells = assay: Measurement of PGE2-increasing activity in A549 cells (IL-1β stimulated, PGE2 quantified in supernatant); format: cell-based; conditions: Homo sapiens, 24 h; concentration of 1 µM of each compound; IL-1β treated A549 cells; read-out: Increased PGE2 production in A549 cells
Procedure, shortened: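 A549 cells grown 24 h in F12K with 10% FBS, then switched to serum-free medium with or without IL-1β and compound (0.1% DMSO final). After 24 h at 37 °C, 5% CO2, supernatant PGE2 quantified by immunoassay.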

Row | Structure (SMILES) | IC50 (human 15-PGDH) | fold induction at 1 µM (A549 cells)
1 | N#Cc1ncc(-c2cccc3c(C(=O)N4CCCCC4)cnn23)cn1 [Example 293, 5-[3-(piperidine-1-carbonyl)pyrazolo[1,5-a]pyridin-7-yl]pyrimidine-2-carbonitrile] | ≤ 100 nM | > 1.5
2 | CC(C)NC(=O)c1ccc(-c2cccc3c(C(=O)N4CCCCC4)cnn23)cn1 [Example 76, N-isopropyl-5-(3-(piperidine-1-carbonyl)pyrazolo[1,5-a]pyridin-7-yl)picolinamide] | ≤ 100 nM | > 1.5
3 | CC(C)(C)OC(=O)N1CC=C(c2cccc3c(C(=O)N4CCCCC4)cnn23)CC1 [Example 120, tert-butyl 4-(3-(piperidine-1-carbonyl)pyrazolo[1,5-a]pyridin-7-yl)-3,6-dihydropyridine-1(2H)-carboxylate] | ≤ 100 nM | > 1.5
4 | Cn1nccc1-c1cc(-c2cccc3c(C(=O)N4CCCCC4)cnn23)cc(N2CCOC2=O)n1 [Example 367, 3-(6-(1-methyl-1H-pyrazol-5-yl)-4-(3-(piperidine-1-carbonyl)pyrazolo[1,5-a]pyridin-7-yl)pyridin-2-yl)oxazolidin-2-one] | ≤ 100 nM | > 1.5
5 | O=C(c1cnn2c(-c3ccc(N4CC5CCC4CC5)nc3)cccc12)N1CCCCC1 [Example 216, (7-(6-(2-azabicyclo[2.2.2]octan-2-yl)pyridin-3-yl)pyrazolo[1,5-a]pyridin-3-yl)(piperidin-1-yl)methanone] | ≤ 100 nM | > 1.5
6 | O=C(c1cncc(-c2cccc3c(C(=O)N4CCCCC4)cnn23)c1)N1CC(O)C1 [Example 42, (3-hydroxyazetidin-1-yl)(5-(3-(piperidine-1-carbonyl)pyrazolo[1,5-a]pyridin-7-yl)pyridin-3-yl)methanone] | ≤ 100 nM | > 1.5
7 | O=C1NCCc2ccc(-c3cccc4c(C(=O)N5CCCCC5)cnn34)cc21 [Example 131, 7-(3-(piperidine-1-carbonyl)pyrazolo[1,5-a]pyridin-7-yl)-3,4-dihydroisoquinolin-1(2H)-one] | ≤ 100 nM | > 1.5
8 | O=C(c1cnn2c(-c3cnc(O)nc3)cccc12)N1CCCCC1 [Example 294, [7-(2-hydroxypyrimidin-5-yl)pyrazolo[1,5-a]pyridin-3-yl]-(1-piperidyl)methanone] | ≤ 100 nM | < 1.5
9 | O=C(c1cnn2c(-c3ccc(-c4cnc(O)nc4)cc3)cccc12)N1CCCCC1 [Example 306, [7-[4-(2-hydroxypyrimidin-5-yl)phenyl]pyrazolo[1,5-a]pyridin-3-yl]-(1-piperidyl)methanone] | ≤ 100 nM | > 1.5
10 | O=C1NCc2ccc(-c3cccc4c(C(=O)N5CCCC(C(F)(F)F)C5)cnn34)cc21 (stereo not drawn) [Example 398, 6-(3-(3-(trifluoromethyl)piperidine-1-carbonyl)pyrazolo[1,5-a]pyridin-7-yl)isoindolin-1-one] | ≤ 100 nM | > 1.5
11 | O=C(c1cnn2c(-c3cnc(F)c(Cl)c3)cccc12)N1CCCCC1 [Example 289, (7-(5-chloro-6-fluoropyridin-3-yl)pyrazolo[1,5-a]pyridin-3-yl)(piperidin-1-yl)methanone] | ≤ 100 nM | > 1.5
12 | O=C(c1cnn2c(-c3ccc(-c4cn[nH]c4)cc3)cccc12)N1CCCCC1 [Example 346, 1-piperidyl-[7-[4-(1H-pyrazol-4-yl)phenyl]pyrazolo[1,5-a]pyridin-3-yl]methanone] | ≤ 100 nM | > 1.5
13 | O=C(c1cncc(-c2cccc3c(C(=O)N4CCCCC4)cnn23)c1)N1CCC2(CC1)COC2 [Example 226, 2-oxa-7-azaspiro[3.5]nonan-7-yl-[5-[3-(piperidine-1-carbonyl)pyrazolo[1,5-a]pyridin-7-yl]-3-pyridyl]methanone] | ≤ 100 nM | > 1.5
14 | N#Cc1cc(-c2cccc3c(C(=O)N4CCCCC4)cnn23)ccc1F [Example 254, 2-fluoro-5-[3-(piperidine-1-carbonyl)pyrazolo[1,5-a]pyridin-7-yl]benzonitrile] | ≤ 100 nM | > 1.5

Now from value to compound, other results behind:

Row | IC50 (human 15-PGDH) | Structure (SMILES) | fold induction at 1 µM (A549 cells)
15 | ≤ 100 nM | O=C(c1cnn2c(-c3cnn(Cc4noc(=O)[nH]4)c3)cccc12)N1CCCCC1 [Example 396, 3-((4-(3-(piperidine-1-carbonyl)pyrazolo[1,5-a]pyridin-7-yl)-1H-pyrazol-1-yl)methyl)-1,2,4-oxadiazol-5(4H)-one] | > 1.5
16 | ≤ 100 nM | Cc1nc(-c2ncc(-c3cccc4c(C(=O)N5CCCCC5)cnn34)cc2F)no1 [Example 263, [7-[5-fluoro-6-(5-methyl-1,2,4-oxadiazol-3-yl)-3-pyridyl]pyrazolo[1,5-a]pyridin-3-yl]-(1-piperidyl)methanone] | > 1.5
17 | ≤ 100 nM | NC(=O)Nc1cccc(-c2cccc3c(C(=O)N4CCCCC4)cnn23)c1 [Example 92, 1-(3-(3-(piperidine-1-carbonyl)pyrazolo[1,5-a]pyridin-7-yl)phenyl)urea] | > 1.5
18 | ≤ 100 nM | O=C1CN(C(=O)c2cncc(-c3cccc4c(C(=O)N5CCCCC5)cnn34)c2)CC(=O)N1 [Example 204, 4-[5-[3-(piperidine-1-carbonyl)pyrazolo[1,5-a]pyridin-7-yl]pyridine-3-carbonyl]piperazine-2,6-dione] | < 1.5
19 | ≤ 100 nM | CN1Cc2ccc(-c3cccc4c(C(=O)N5CCC(F)CC5)cnn34)cc2C1=O [Example 231, 6-(3-(4-fluoropiperidine-1-carbonyl)pyrazolo[1,5-a]pyridin-7-yl)-2-methylisoindolin-1-one] | > 1.5
20 | ≤ 100 nM | O=C(c1cnn2c(-c3ccc(N4CC(F)C4)nc3)cccc12)N1CCCCC1 [Example 208, (7-(6-(3-fluoroazetidin-1-yl)pyridin-3-yl)pyrazolo[1,5-a]pyridin-3-yl)(piperidin-1-yl)methanone] | > 1.5
21 | ≤ 100 nM | Cn1nc(N)c2cc(-c3cccc4c(C(=O)N5CCCCC5)cnn34)ccc21 [Example 261, [7-(3-amino-1-methyl-indazol-5-yl)pyrazolo[1,5-a]pyridin-3-yl]-(1-piperidyl)methanone] | > 1.5
22 | ≤ 100 nM | O=C(c1cnn2c(-c3cccc(-c4noc(=O)[nH]4)c3)cccc12)N1CCCCC1 [Example 115, 3-(3-(3-(piperidine-1-carbonyl)pyrazolo[1,5-a]pyridin-7-yl)phenyl)-1,2,4-oxadiazol-5(4H)-one] | > 1.5
23 | ≤ 100 nM | O=C(c1cnn2c(-c3ccc4c(=O)[nH]ncc4c3)cccc12)N1CCCCC1 [Example 233, 6-(3-(piperidine-1-carbonyl)pyrazolo[1,5-a]pyridin-7-yl)phthalazin-1(2H)-one] | > 1.5
24 | ≤ 100 nM | O=C(c1cnn2c(-c3ccc(N4CCCCC4)nc3)cccc12)N1CCCCC1 [Example 110, piperidin-1-yl(7-(6-(piperidin-1-yl)pyridin-3-yl)pyrazolo[1,5-a]pyridin-3-yl)methanone] | < 1.5
25 | ≤ 100 nM | COCCC(=O)Nc1cccc(-c2cccc3c(C(=O)N4CCCCC4)cnn23)c1 [Example 91, 3-methoxy-N-(3-(3-(piperidine-1-carbonyl)pyrazolo[1,5-a]pyridin-7-yl)phenyl)propanamide] | > 1.5
26 | ≤ 100 nM | O=C(c1cnn2c(Nc3ccc[nH]c3=O)cccc12)N1CCCCC1 [Example 147, 3-((3-(piperidine-1-carbonyl)pyrazolo[1,5-a]pyridin-7-yl)amino)pyridin-2(1H)-one] | > 1.5
27 | ≤ 100 nM | O=C1CC(C(=O)Nc2cncc(-c3cccc4c(C(=O)N5CCCCC5)cnn34)c2)CCN1 (stereo not drawn) [Example 198, 2-oxo-N-(5-(3-(piperidine-1-carbonyl)pyrazolo[1,5-a]pyridin-7-yl)pyridin-3-yl)piperidine-4-carboxamide] | > 1.5
28 | ≤ 100 nM | CC(C)N1CCN(C(=O)c2ccc(-c3cccc4c(C(=O)N5CCCCC5)cnn34)cn2)CC1 [Example 84, (4-isopropylpiperazin-1-yl)(5-(3-(piperidine-1-carbonyl)pyrazolo[1,5-a]pyridin-7-yl)pyridin-2-yl)methanone] | > 1.5
29 | ≤ 100 nM | Cc1ncc(-c2cc(-c3cccc4c(C(=O)N5CCCCC5)cnn34)cc(N3CCOC3=O)n2)cn1 [Example 372, 3-(6-(2-methylpyrimidin-5-yl)-4-(3-(piperidine-1-carbonyl)pyrazolo[1,5-a]pyridin-7-yl)pyridin-2-yl)oxazolidin-2-one] | > 1.5
30 | ≤ 100 nM | COCCCNc1ccc(-c2cccc3c(C(=O)N4CCCCC4)cnn23)cn1 [Example 107, (7-(6-((3-methoxypropyl)amino)pyridin-3-yl)pyrazolo[1,5-a]pyridin-3-yl)(piperidin-1-yl)methanone] | > 1.5
